Results: US12582617B2, “Methods for treating cancer” (RADIUS PHARMACEUTICALS, INC., priority 2015, dated 2026)
Values joined by “and” are separate entries in the source; they are usually repeats but may differ in a detail not shown here. Equal values may be shown once. Where a name gives a salt, the structure may show the parent alone.

What was measured:
[1] = RAD1901 levels in plasma, tumor and brain of mice implanted with MCF7 cells (LC-MS/MS); type: in vivo; conditions: for Brain: treated for 40 days
Excerpt: A similar tumor to plasma ratio was also observed at lower dose levels where tumor concentrations were approximately 20-30 fold higher than in plasma.

ER = biological target: T1, ER (Homo sapiens, UniProt P03372); experiment: FES-PET ER engagement in healthy postmenopausal female subjects; type: in vivo; conditions: for ER occupied in the uterus: after 6 days
T1 construct: from tissue; host or cells: uterus (also pituitary, bone and muscle as non-target tissue) of living human subjects
T1 sequence (P03372 1-595): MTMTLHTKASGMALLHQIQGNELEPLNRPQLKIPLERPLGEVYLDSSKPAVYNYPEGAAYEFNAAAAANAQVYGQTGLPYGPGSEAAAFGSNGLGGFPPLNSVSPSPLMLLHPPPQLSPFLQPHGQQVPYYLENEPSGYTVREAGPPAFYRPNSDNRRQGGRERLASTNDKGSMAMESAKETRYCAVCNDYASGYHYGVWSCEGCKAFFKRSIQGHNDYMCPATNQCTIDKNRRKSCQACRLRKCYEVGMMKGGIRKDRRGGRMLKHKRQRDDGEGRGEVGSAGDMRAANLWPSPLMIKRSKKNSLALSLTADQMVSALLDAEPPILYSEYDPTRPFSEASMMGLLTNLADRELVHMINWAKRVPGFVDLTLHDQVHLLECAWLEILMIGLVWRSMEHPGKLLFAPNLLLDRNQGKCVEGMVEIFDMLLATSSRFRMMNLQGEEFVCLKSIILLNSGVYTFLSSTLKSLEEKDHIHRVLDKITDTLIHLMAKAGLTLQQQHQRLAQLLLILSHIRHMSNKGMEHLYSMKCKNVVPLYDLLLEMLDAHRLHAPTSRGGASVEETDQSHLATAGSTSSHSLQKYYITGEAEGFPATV
Excerpt: The subjects were 40-75 years old with BMI of 18.0-30 kg/m^2. Subjects had intact uterus. Subjects having evidence of clinically relevant pathology, increased risk of stroke or of history venous thromboembolic events, or use of concomitant medication less than 14 days prior to admission to clinical research center (paracetamol allowed up to 3 days prior) were excluded.

[2] = end of study, 60 mg/kg dose level
[3] = 200 mg PO once/day for six days, one subject
[4] = 500 mg p.o., q.d., Day 6, individual subjects 1-4, dihydrochloride
[5] = 500 mg p.o., q.d., Day 6 versus Baseline, individual subjects 1-4, dihydrochloride
[6] = 500 mg p.o., q.d., six days, Mean of n = 4

## CCNCCc1ccc(CN(CC)c2cc(OC)ccc2[C@@H]2CCc3cc(O)ccc3C2)cc1 [RAD1901, (6R)-6-(2-(N-(4-(2-(ethylamino)ethyl)benzyl)-N-ethylamino)-4-methoxyphenyl)-5,6,7,8-tetrahydronaphthalen-2-ol dihydrochloride]
[1]; 0.3 mg/kg
  Brain: BLQ
[1]; 1 mg/kg
  Brain: BLQ
[1]; [2]
  concentration of RAD1901 in plasma: 344 ± 117 ng/mL
  concentration of RAD1901 in tumor: 11,118±3,801 ng/mL
[1]; mice treated for 40 days
  delivery to the brain (in words): able to cross the blood-brain barrier (BBB)
  tumor accumulation (in words): preferably accumulated in the tumor
ER; [3]
  Bone SUV % Change: 16%
  Muscle SUV % Change: 0%
  Uterus SUV % Change: −85%
ER; 200 mg dose level (7 subjects)
  ER occupied in the uterus: 83%
ER; 200 mg or 500 mg p.o., q.d, 6 days, uterus and pituitary
  binding of labeled-estradiol, FES-PET imaging (in words): significant reduction in binding of labeled-estradiol to both the uterus and pituitary
ER; 500 mg dose level (6 subjects)
  ER occupied in the uterus: 92%
ER; [4]
  Mean Bone SUV: 0.48 and 0.55 and 0.47 and 0.52
  Mean Muscle SUV: 0.31 (2×) and 0.42 and 0.24
  Mean Uterus SUV: 0.58 (2×) and 0.33 and 0.41
ER; [5]
  Bone SUV Change (%): 33% and 12% and −23% and 30%
  Muscle SUV Change (%): −6% and 68% and −38% and −20%
  Uterus SUV Change (%): −85% and −86% and −88%
ER; 500 mg p.o., q.d., six days
  post dose FES-PET scan of uterus and pituitary (in words): no noticeable signal of ER binding
ER; [6]
  Bone SUV Change (%): 13%
  Muscle SUV Change (%): 1%
  Uterus SUV Change (%): −86%
